In paper PMC12006171, “Marsupial cathelicidins: characterization, antimicrobial activity and evolution in this unique mammalian lineage” (Frontiers in Immunology, 2025):
Values after ≈ are worked out from the molar mass of the structure shown. Like-named read-outs stand apart in the source and are kept apart here. Where a SMILES comes first, the peptide text is derived from it. Where no end group is shown, it is not given here.

Assays:
Assay in all cases: microbe, parasite or virus in culture
Type in all cases: cell-based
[1] = system: Escherichia coli ATCC 25922; conditions: ATCC 25922
How it was run: (§1)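 MIC read visually as the lowest peptide concentration with no growth versus negative control, after 20–24 h at 35°C. Peptides were tested in duplicate 64-0.125μg/mL (final) in MHB or cation-supplemented MH II B, some with 10% lysed horse blood; inoculum 5 x 10^5 CFU/mL.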

[2] = system: Escherichia coli clinical isolate - animal; conditions: clinical isolate - animal
How it was run: as §1

[3] = system: Pseudomonas aeruginosa ATCC 27853; conditions: ATCC 27853; for MIC: read-out: MIC P. aeruginosa ATCC
How it was run: as §1

[4] = system: Pseudomonas aeruginosa clinical isolate - animal; conditions: clinical isolate - animal
How it was run: as §1

[5] = system: Staphylococcus aureus ATCC 29213; conditions: ATCC 29213; read-out: MIC S. aureus ATCC
How it was run: as §1

[6] = system: Staphylococcus aureus clinical isolate - animal; conditions: clinical isolate - animal; read-out: MIC S. aureus
How it was run: as §1

[7] = system: Streptococcus agalactiae ATCC 12386; conditions: ATCC 12386; for MIC: read-out: MIC S. agalactiae ATCC
Method: (§2) Antimicrobial testing of 78 cathelicidin MPs was performed in two phases as outlined in Figure 1 . In phase I, 40 peptides (27 extant and 13 ancestral) were selected for testing based on rank (outlined above) and similarity to published marsupial cathelicidins with known antimicrobial activity ([33], [41]–[43]). These peptides were tested against nine bacteria (Staphylococcus aureus ATCC 29213 and clinical isolate, Escherichia coli ATCC 25922 and clinical isolate, Pseudomonas aeruginosa ATCC 27853 and clinical isolate, Streptococcus agalactiae ATCC 12386 and clinical isolate, Streptococcus pneumoniae ATCC 49619) and three fungi (Candida krusei ATCC 6258, Candida parapsilosis ATCC 22019, and Candida albicans clinical isolate). Details regarding these strains are available in Supplementary Table 4 . The antimicrobial activity of cathelicidins was determined as the minimum inhibitory concentration (MIC), which was the lowest concentration of cathelicidin that prevented visible bacterial or fungal growth, relative to the negative control. […] Minimum bactericidal concentration (MBC) and/or minimum fungicidal concentration (MFC) was conducted to determine microbicidal versus static action. Activity against S. aureus ATCC, E. coli ATCC, and Pseudomonas aeruginosa ATCC 27853 was examined in the presence of divalent cations to determine the impact of inhibitors.
(§3) Antimicrobial activity was determined using a broth microdilution susceptibility assay in 96 well polypropylene plates according to Clinical Laboratory Standards Institute guidelines M07-A and M26A as described previously ([33], [42], [43]). The bacterial and fungal isolates from humans and animals used in this study are outlined in Supplementary Table 4 . Only yeasts were included in the panel of fungi as they have been used in the susceptibility testing of eutherian ([3], [81]–[83]) and other marsupial cathelicidins previously ([33], [42], [43]). Cathelicidin mature peptides were solubilized in DMSO and serially diluted in duplicate from 128-0.25μg/mL in a final volume of 100µL. For bacteria, cathelicidins were diluted in Mueller Hinton Broth (MHB) with or without 10% lysed horse blood, and with (MH II B) or without (MHB) calcium and magnesium cations. For fungi, cathelicidins were diluted in Roswell Park Memorial Institute medium (RPMI)-1640 MOPS. Ampicillin or tetracycline were included as a positive control for Gram-positive and -negative bacteria respectively, while amphotericin B was used for fungi. A media-only negative control and growth control (no cathelicidin) were also included on each plate. Bacteria were sub-cultured on Muller Hinton agar (MHA) or sheep blood agar (BA), and fungi on Sabouraud dextrose agar (SAB), 20–24 hours prior to the test. Colonies were suspended in saline, the concentration adjusted to a 0.5 McFarland standard, and then diluted in media to a concentration of 1.0 x 10^6 cells/mL. Then, 100μL was added to each well of the cathelicidin dilution plate, giving a final inoculum density of 5 x 10^5 CFU/mL and cathelicidin concentration of 64-0.125μg/mL. Colony counts were performed on MHA/BA/SAB to confirm inoculum density. All plates were incubated at 35°C for 20–24 hours, depending on the strain.
(§4) Colonies were counted and compared to the colony count of the starting inoculum.

[8] = system: Streptococcus agalactiae Clinical isolate - animal; conditions: clinical isolate - animal; for MIC: read-out: MIC S. agalactiae
Method: as §2, §3, §4

[9] = system: Streptococcus pneumoniae ATCC 49619; conditions: ATCC 49619; for MIC: read-out: MIC S. pneumoniae ATCC
Method: as §2, §3, §4

[10] = read-out: MIC in the presence of cations E. coli ATCC

| Molecule | MBC E. coli ATCC [1] | MIC ([1]; read-out: MIC E. coli ATCC) [µM] | MIC [1, 10] [µM] | MBC E. coli [2] | MIC E. coli [2] | MIC in the presence of cations E. coli [2] | MIC ([4]; read-out: MIC P. aeruginosa) [µM] | MIC [5] [µM] | MIC [6] [µM] | MIC [2] [µM] | MIC [3] [µM] | MIC [7] [µM] | MIC [8] [µM] | MIC [9] [µM] | also measured |
| --- | --- | --- | --- | --- | --- | --- | --- | --- | --- | --- | --- | --- | --- | --- | --- |
| CC[C@H](C)[C@H](NC(=O)[C@H](C)NC(=O)[C@H](CC(N)=O)NC(=O)[C@H](CCCCN)NC(=O)[C@H](CC(C)C)NC(=O)[C@@H](NC(=O)[C@H](CC(N)=O)NC(=O)[C@H](CCCCN)NC(=O)[C@@H](NC(=O)[C@H](CCCCN)NC(=O)[C@H](CC(=O)O)NC(=O)CNC(=O)[C@H](C)NC(=O)[C@H](CCCCN)NC(=O)[C@H](CCCCN)NC(=O)[C@H](CC(C)C)NC(=O)[C@H](CC(C)C)NC(=O)[C@H](CC(N)=O)NC(=O)[C@H](CCCCN)NC(=O)[C@H](Cc1ccccc1)NC(=O)[C@H](CCCCN)NC(=O)[C@H](CCC(=O)O)NC(=O)[C@H](Cc1ccccc1)NC(=O)[C@@H](NC(=O)[C@H](CCCNC(=N)N)NC(=O)[C@H](CC(C)C)NC(=O)[C@H](CCCNC(=N)N)NC(=O)[C@@H](N)CCCCN)[C@@H](C)CC)[C@@H](C)CC)[C@@H](C)O)C(=O)N[C@@H](CC(N)=O)C(=O)NCC(=O)N[C@@H](CC(C)C)C(=O)N[C@@H](CC(C)C)C(=O)N[C@@H](CO)C(=O)N1CCC[C@H]1C(=O)N[C@H](C(=O)NCC(=O)N[C@@H](CCCNC(=N)N)C(=O)O)[C@@H](C)CC [MAP7] (H-KRLRIFEKFKNLLKKAGDKIKNTLKNAINGLLSPIGR-OH) | 3.7 µM (≈ 15.7 µg/mL) | 1.8 (≈ 7.63 µg/mL) | 1.8 | 3.7 (3.7)^3.7 µM | 3.7 (3.7)^3.7 µM | 3.7 (3.7)^3.7 µM | 7.5 (≈ 31.8 µg/mL) | >15.1 | >15.1 | – | – | – | – | – | MBC P. aeruginosa ATCC [3]: 7.5 (7.5)^7.5 µM; MIC P. aeruginosa ATCC [3]: 7.5 (7.5)^7.5 µM; MIC in the presence of cations P. aeruginosa ATCC [3]: 7.5 (7.5)^7.5 µM; MBC P. aeruginosa [4]: 64 µg/mL (≈ 15.1 µM); MIC ([4]; read-out: MIC in the presence of cations P. aeruginosa): 7.5 µM; MBC S. agalactiae ATCC [7]: 15.1 µM (≈ 64 µg/mL); MIC S. agalactiae ATCC [7]: 15.1 µM (≈ 64 µg/mL); MBC S. agalactiae [8]: 15.1 µM (≈ 64 µg/mL); MIC S. agalactiae [8]: 15.1 µM (≈ 64 µg/mL); MBC S. pneumoniae ATCC [9]: 7.5 µM (≈ 31.8 µg/mL); MIC S. pneumoniae ATCC [9]: 7.5 µM (≈ 31.8 µg/mL) |
| KVKRGLWDSVKKKVSKFRNSIRRRVTSFKIGAADIRKGYSVA [BepeCath7] | 13.2 µM | 6.6 | 6.6 | 13.2 µM | – | 6.6 µM | >13.2 | >13.2 | >13.2 | 6.6 | >13.2 | >13.2 | >13.2 | >13.2 | – |
| CC[C@H](C)[C@H](NC(=O)[C@H](C)NC(=O)[C@H](CC(N)=O)NC(=O)[C@H](CCCCN)NC(=O)[C@H](Cc1ccccc1)NC(=O)[C@@H](NC(=O)[C@H](CC(=O)O)NC(=O)[C@H](CCCCN)NC(=O)[C@@H](NC(=O)[C@H](CCCCN)NC(=O)[C@H](CC(=O)O)NC(=O)[C@H](CO)NC(=O)[C@H](C)NC(=O)[C@H](CCCCN)NC(=O)[C@H](CCCCN)NC(=O)[C@H](CC(C)C)NC(=O)[C@H](CC(C)C)NC(=O)[C@H](CC(N)=O)NC(=O)[C@H](CCCCN)NC(=O)[C@@H](NC(=O)[C@H](CCCCN)NC(=O)[C@H](CCC(=O)O)NC(=O)[C@@H](NC(=O)[C@@H](NC(=O)[C@H](CCCNC(=N)N)NC(=O)[C@H](CC(C)C)NC(=O)[C@H](CCCNC(=N)N)NC(=O)[C@H](CCCCN)NC(=O)[C@@H](N)C(C)C)[C@@H](C)CC)C(C)C)[C@@H](C)CC)[C@@H](C)CC)[C@@H](C)O)C(=O)N[C@@H](CC(N)=O)C(=O)N[C@@H](CO)C(=O)N[C@@H](CC(C)C)C(=O)N[C@@H](CC(C)C)C(=O)N[C@@H](CO)C(=O)O [MacroCath7] (H-VKRLRIVEKIKNLLKKASDKIKDTFKNAINSLLS-OH) | 16.3 µM (≈ 64 µg/mL) | 8.1 (≈ 31.8 µg/mL) | 8.1 | 16.3 (16.3)^16.3 µM | 16.3 (16.3)^16.3 µM | 16.3 (16.3)^16.3 µM | >16.3 | >16.3 | >16.3 | – | >16.3 | >16.3 | >16.3 | >16.3 | – |
| CC[C@H](C)[C@H](NC(=O)[C@H](CCCCN)NC(=O)[C@H](CC(C)C)NC(=O)CNC(=O)[C@H](CC(N)=O)NC(=O)[C@@H](NC(=O)[C@H](CCCNC(=N)N)NC(=O)[C@H](CCCNC(=N)N)NC(=O)[C@H](CCCNC(=N)N)NC(=O)[C@@H](NC(=O)[C@H](CO)NC(=O)[C@H](CC(N)=O)NC(=O)[C@H](CCCNC(=N)N)NC(=O)[C@H](CC(C)C)NC(=O)[C@H](CCCCN)NC(=O)[C@H](CCCCN)NC(=O)[C@H](C)NC(=O)[C@H](CCCCN)NC(=O)[C@H](CCC(=O)O)NC(=O)[C@H](CCCCN)NC(=O)[C@@H](NC(=O)[C@@H](NC(=O)[C@H](CC(=O)O)NC(=O)[C@H](Cc1c[nH]c2ccccc12)NC(=O)[C@H](CC(C)C)NC(=O)CNC(=O)[C@H](CCCNC(=N)N)NC(=O)[C@@H](N)CCCCN)[C@@H](C)O)C(C)C)[C@@H](C)CC)C(C)C)C(=O)NCC(=O)N[C@@H](C)C(=O)N[C@@H](C)C(=O)N[C@@H](CC(=O)O)C(=O)N[C@@H](CCC(N)=O)C(=O)N[C@H](C(=O)N1CCC[C@H]1C(=O)NCC(=O)N[C@@H](Cc1c[nH]cn1)C(=O)N[C@@H](CO)C(=O)N[C@@H](CC(C)C)C(=O)O)C(C)C [LahiCath4] (H-KRGLWDTVKEKAKKLRNSIRRRVNGLKIGAADQVPGHSL-OH) | 14.5 µM (≈ 63.8 µg/mL) | 7.2 (≈ 31.7 µg/mL) | 14.5 | 14.5 µM (≈ 63.8 µg/mL) | – | 14.5 µM | >14.5 | >14.5 | >14.5 | 3.6 (≈ 15.8 µg/mL) | >14.5 | >14.5 | >14.5 | >14.5 | – |
| CC[C@H](C)[C@H](NC(=O)[C@H](CC(=O)O)NC(=O)[C@H](CCCNC(=N)N)NC(=O)[C@H](CC(C)C)NC(=O)[C@H](CCCCN)NC(=O)[C@H](CCCNC(=N)N)NC(=O)[C@H](Cc1ccc(O)cc1)NC(=O)[C@H](CCCCN)NC(=O)[C@H](CCC(=O)O)NC(=O)[C@H](CC(C)C)NC(=O)[C@H](CC(C)C)NC(=O)[C@@H](NC(=O)[C@H](CCCNC(=N)N)NC(=O)[C@H](Cc1ccc(O)cc1)NC(=O)[C@H](CCCCN)NC(=O)[C@H](CCC(N)=O)NC(=O)[C@H](Cc1ccc(O)cc1)NC(=O)[C@@H](NC(=O)[C@H](CC(C)C)NC(=O)[C@@H](N)CC(N)=O)[C@@H](C)CC)[C@@H](C)CC)C(=O)N[C@@H](Cc1ccccc1)C(=O)N[C@@H](CO)C(=O)NCC(=O)O [MAP6] (H-NLIYQKYRILLEKYRKLRDIFSG-OH) | 10.9 (10.9)^10.9 µM | – | – | 10.9 (10.9)^10.9 µM | 10.9 (10.9)^10.9 µM | 10.9 (10.9)^10.9 µM | >21.8 | >21.8 | >21.8 | – | >21.8 | >21.8 | >21.8 | >21.8 | MIC E. coli ATCC [1]: 10.9 (10.9)^10.9 µM; MIC in the presence of cations E. coli ATCC [1]: 10.9 (10.9)^10.9 µM |
